Assay [1] in a line: A cytotoxicity screen of small molecule inhibitors of the PhoP region in Salmonella typhi identified in the primary screen. [Related pubchem assays: 1850, 1864, 1985 ]. The class given is functional.
For assay [2], the target named is Neuropeptide Y receptor type 2 (Homo sapiens, UniProt P49146). The assay is described as follows: Fluorescence-based cell-based high-throughput dose response assay for agonists of NPY-Y2. [Related pubchem assays: 1703 (Screening assay (CNGC inhibitors).), 1359 (Screening assay (NPY-Y2 potentiators or agonists).), 1304 (Screening assay (NPY-Y1 potentiators or agonists).), 1710 (Screening assay (NPY-Y2 agonists).), 1791 (Summary AID.)]. The format is functional.
Chain of Neuropeptide Y receptor type 2 (P49146 whole entry): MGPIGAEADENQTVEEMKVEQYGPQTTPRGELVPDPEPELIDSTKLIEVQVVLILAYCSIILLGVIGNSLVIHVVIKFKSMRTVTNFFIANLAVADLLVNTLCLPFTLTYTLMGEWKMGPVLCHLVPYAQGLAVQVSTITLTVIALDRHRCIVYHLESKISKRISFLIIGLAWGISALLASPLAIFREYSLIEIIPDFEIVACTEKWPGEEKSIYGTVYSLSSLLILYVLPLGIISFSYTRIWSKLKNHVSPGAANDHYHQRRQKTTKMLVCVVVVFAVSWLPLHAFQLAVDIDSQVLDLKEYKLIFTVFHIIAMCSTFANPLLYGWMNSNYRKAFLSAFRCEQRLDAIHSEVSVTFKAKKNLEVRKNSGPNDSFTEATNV

The target in assay [3] is Neuropeptide Y receptor type 1 (Homo sapiens, UniProt P25929). The experiment in a line: Fluorescence-based counterscreen for agonists of NPY-Y2: cell-based high-throughput dose response assay for agonists of NPY-Y1. The class given is functional.
Chain of Neuropeptide Y receptor type 1 (P25929 whole entry): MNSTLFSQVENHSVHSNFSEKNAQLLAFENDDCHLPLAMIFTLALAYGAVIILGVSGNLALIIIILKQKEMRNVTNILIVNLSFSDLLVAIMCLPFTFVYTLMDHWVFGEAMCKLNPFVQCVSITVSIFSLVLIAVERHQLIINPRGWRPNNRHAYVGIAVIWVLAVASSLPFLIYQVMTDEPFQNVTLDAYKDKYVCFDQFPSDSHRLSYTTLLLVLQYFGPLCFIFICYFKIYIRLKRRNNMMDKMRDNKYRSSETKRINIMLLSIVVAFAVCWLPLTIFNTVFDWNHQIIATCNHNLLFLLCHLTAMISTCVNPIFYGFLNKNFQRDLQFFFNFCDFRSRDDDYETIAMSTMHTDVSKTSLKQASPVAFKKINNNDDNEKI
For assay [4], the system named is HEK293. The experiment in a line: Fluorescence-based counterscreen for potentiators or agonists of NPY-Y2: cell-based high-throughput dose response assay to identify inhibitors of cyclic nucleotide gated ion channel (CNGC) activity. In this assay, the parental HEK293 cell line transfected with a cyclic-nucleotide gated ion channel (CNGC)-based cAMP sensor is used to measure inhibition of isoproterenol-induced CNGC activity by test compound. The class given is functional. Conditions: Homo sapiens. Background: Counterscreens check selectivity or assay interference.

In assay [5] the test system is Streptococcus sp. 'group A'. The experiment in a line: growth inhibition of control SK(-) GAS strain, dose response, counter-screen for streptokinase expression inhibitor project, luminescence, kanamycin, BacTiterGlo, confirmation (AID 1900). The class given is functional, organism-based.
Assay [6] in a line: cells. The class given is functional, cell-based.
Assay [7] can be described thus: Luminescence-based counterscreen assay for KLF5 inhibitors: dose response cell-based high throughput screening assay to identify cytotoxic compounds using the IEC-6 intestinal epithelial cell line. [Related pubchem assays: 1700 (Primary screen.), 1834 (Confirmation screen.), 1858 (Summary AID.), 1905 (Counterscreen.)]. The class given is functional.
Assay [8] deals with Streptococcus. The assay is described as follows: Group A Streptococcus viability loss, dose response, counter-screen for streptokinase expression inhibitor project, luminescence, BacTiterGlo (AID 1915).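 Further: potency for reduction of bacterial viability or growth.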 The format is functional, organism-based.
The target in assay [9] is T1, Streptokinase A (Streptococcus pyogenes serotype M1, UniProt P10520).
T1 sequence (P10520 whole entry): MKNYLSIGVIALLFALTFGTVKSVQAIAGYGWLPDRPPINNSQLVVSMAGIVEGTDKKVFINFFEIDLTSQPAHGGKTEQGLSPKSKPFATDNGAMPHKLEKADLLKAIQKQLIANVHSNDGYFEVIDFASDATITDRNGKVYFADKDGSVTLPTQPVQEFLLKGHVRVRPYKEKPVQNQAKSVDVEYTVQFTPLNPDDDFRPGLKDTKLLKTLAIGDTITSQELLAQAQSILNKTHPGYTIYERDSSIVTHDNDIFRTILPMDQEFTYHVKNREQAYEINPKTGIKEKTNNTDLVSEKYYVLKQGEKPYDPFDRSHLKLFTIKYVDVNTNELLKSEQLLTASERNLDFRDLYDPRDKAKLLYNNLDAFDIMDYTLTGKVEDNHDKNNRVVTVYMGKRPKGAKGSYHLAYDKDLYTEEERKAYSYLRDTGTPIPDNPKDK
The assay is described as follows: S. pyogenes streptokinase expression inhibitors, potency, dose response, plasminogen activation absorbance, OD405 (AID 1914).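 Further: secreted streptokinase activity via plasminogen activation per viability signal from cell pellet.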 The class given is functional, Streptococcus pyogenes M1 GAS.

Assay [10] in a line: inhibitors of intracellular T. cruzi replication, confirmation, NIH3T3 host cells, beta-gal luminescence (AID 2044).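 Further: intracellular parasites grown in NIH/3T3 mouse fibroblasts as host cells; luminescent beta-galactosidase reporter signal from transgenic T. cruzi replicating inside host cells; inhibitors lower the luminescence signal.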 The class given is functional, cell-based.
A short description of assay [11]: cells. The class given is functional, cell-based. The source holds these as a separate data set.
A short description of assay [12]: cytotoxicity toward NIH3T3 fibroblasts, dose response, counter-screen, cell-based, ATP luminescence, mouse fibroblasts (AID 2010).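 Further: cells exposed to compound for about 90 hours before reading.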 The class given is functional.
For assay [13], the system named is INS1. The assay is described as follows: beta cell apoptosis inhibitors, cytokine rescue, dose response, luminescence, retest (AID 449756).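 Further: cell death triggered by IL-1 beta plus TNF-alpha plus IFN-gamma mixture; protective hits raise ATP signal compared with cytokine alone wells.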 The class given is functional, cell-based. The settings on record: Rattus norvegicus.
For assay [14], the system named is HEK293. The assay is described as follows: inhibitors of LMP1-driven NF-kB reporter, dose response, cell-based, HEK293, luciferase, cherry-pick (AID 588343). The format is functional. Conditions: Homo sapiens.
Assay [15] addresses Nucleotide-binding oligomerization domain-containing protein 2 (Homo sapiens, UniProt Q9HC29). The assay is described as follows: NOD2 signaling inhibitors, cell-based, luminescence, uHTS, HEK293 (AID 1566). The class given is functional.
Assay [16] deals with HEK293. The experiment in a line: NOD1 signaling inhibitors, primary screen, cell-based, luminescence, uHTS (AID 1578). The settings on record: Homo sapiens. The class given is functional.
Assay [17] relates to HEK293. The assay is described as follows: cells. The class given is functional, cell-based. The settings on record: Homo sapiens.
For assay [18], the system named is HEK293. The experiment in a line: cells. The class given is functional, cell-based. The settings on record: Homo sapiens. The source holds these as a separate data set.
Assay [19] relates to HEK293. The experiment in a line: NOD2 signaling inhibitors in MDP-stimulated cells, cell-based, uHTS, luminescence (AID 2001). The class given is functional. Conditions: Homo sapiens.
For assay [20], the system named is HEK293. The experiment in a line: cells. The format is functional, cell-based. Conditions: Homo sapiens. This is another data set of the same source.

Each structure is given as a SMILES string. Calls of active or inactive are those of the source.

Chain of Nucleotide-binding oligomerization domain-containing protein 2 (Q9HC29 whole entry, the tested form may be a part): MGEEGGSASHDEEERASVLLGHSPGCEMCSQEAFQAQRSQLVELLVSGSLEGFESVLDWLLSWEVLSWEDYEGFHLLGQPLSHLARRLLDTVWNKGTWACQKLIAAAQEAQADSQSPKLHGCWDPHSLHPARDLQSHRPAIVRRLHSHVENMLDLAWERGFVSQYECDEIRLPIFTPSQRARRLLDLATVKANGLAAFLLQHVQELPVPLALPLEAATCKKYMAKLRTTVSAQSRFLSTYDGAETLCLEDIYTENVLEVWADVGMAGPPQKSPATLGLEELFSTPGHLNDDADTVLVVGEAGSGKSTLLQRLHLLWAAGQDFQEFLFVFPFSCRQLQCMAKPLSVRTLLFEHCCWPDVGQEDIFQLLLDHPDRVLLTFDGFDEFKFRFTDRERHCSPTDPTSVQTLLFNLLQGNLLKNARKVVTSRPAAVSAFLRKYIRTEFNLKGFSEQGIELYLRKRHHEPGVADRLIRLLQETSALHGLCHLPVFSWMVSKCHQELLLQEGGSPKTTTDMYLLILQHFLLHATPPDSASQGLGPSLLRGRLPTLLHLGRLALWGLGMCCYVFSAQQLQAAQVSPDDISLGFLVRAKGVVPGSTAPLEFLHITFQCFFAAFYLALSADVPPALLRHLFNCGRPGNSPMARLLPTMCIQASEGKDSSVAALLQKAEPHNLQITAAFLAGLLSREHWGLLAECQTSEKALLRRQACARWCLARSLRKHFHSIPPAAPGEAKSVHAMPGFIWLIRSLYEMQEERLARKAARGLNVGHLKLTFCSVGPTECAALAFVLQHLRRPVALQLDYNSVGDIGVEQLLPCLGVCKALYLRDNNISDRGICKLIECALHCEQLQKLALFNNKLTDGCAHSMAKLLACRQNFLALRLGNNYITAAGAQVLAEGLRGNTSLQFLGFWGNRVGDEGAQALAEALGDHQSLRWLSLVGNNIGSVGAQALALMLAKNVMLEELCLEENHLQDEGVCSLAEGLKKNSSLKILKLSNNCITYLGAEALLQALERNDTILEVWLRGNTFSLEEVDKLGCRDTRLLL

Take `Clc1ccc(Nc2nc(C3CC3)cs2)cc1`: in [1], the EC50 (commonly the concentration giving half of the maximal effect) was > 50 µM (active).
Regarding `CC(Nc1ccccc1)c1cccnc1` (configuration not stated), the EC50 in assay [2], in assay [3] and in [4] was > 35.4 µM (not active) throughout.
Take `CCc1nc(C)ccc1OCC(=O)N(CC)CC`: the EC50 in assay [1] was > 50 µM (active).
For `Cc1ccc2[nH]c(C(=O)N/N=C/c3ccccc3O)c(C)c2c1`, the EC50 in assay [5] was 1.63 µM (active); in [6] it was 6.86 µM (active); in assay [8], 3.86 µM (active); in assay [9] it was > 150 µM (not active); in assay [10] it was 0.564 µM (active); in assay [11], > 350 µM (not active). In assay [12], the EC50 was 6.55 µM (active). In addition, in assay [7], the half-maximal inhibitory concentration (IC50) (in general, the concentration that inhibits the measured activity by half) is 3.15 µM (active). The AC50 – broadly, the midpoint of the concentration-response curve, whichever way the signal moves – in assay [13] is 0.507 µM (active); in assay [14], 7.07 µM (active).
Consider `Cc1cc(/C=N/Nc2nc(N)ncc2[N+](=O)[O-])c(C)n1-c1ccccc1F`, for which the figures for the EC50 in assay [15] and in assay [16] were < 0.31 µM (inactive) and 4.64 µM (active), respectively. Further, the IC50 in [7] was > 39.8 µM (not active); in [17] it was > 20 µM (inactive); in [18] it was > 20 µM (inactive); in assay [19], 6.02 µM (active); in assay [20], 1.77 µM (active).

The values above are taken from ChEMBL document CHEMBL1201862, “PubChem BioAssay data set” (2004).
